From patent US20240335464A1, “ADMINISTRATION OF STING AGONIST, CHECKPOINT INHIBITORS, AND RADIATION” (Takeda Pharmaceutical Company Limited, priority 2020, published 2024)

Test system: EMT6 mouse breast carcinoma syngeneic tumor
Assay: Study 3: EMT6 orthotopic (mammary fat pad) syngeneic tumor model, time-to-progression analysis
Format: in vivo, female BALB/c mice
Method: Study 3: EMT6 is a mouse breast carcinoma cell line. EMT6 mouse syngeneic tumor model was generated by orthotopic inoculation with 1.0×10^6 EMT6 cells (cell suspension) in seven to eight week old female BALB/c mice (Envigo Corp., Indianapolis, IN) in the mammary fat pad. When the mean tumor volume reached approximately 110 mm^3, the animals were randomized into one vehicle control and eight treatment groups (n=8/group). Mice were then treated with Compound No. 14, anti-mouse PD-1 (anti-mPD-1) (clone RMP1-14), and/or three fraction doses of 8 Gy of Radiation (8 Gy×3), or the respective control agents (PBS, isotype control antibody, and/or mock radiation) in the following combinations over an 11-day period. • Group 1: vehicle (PBS)+isotype control+mock radiation • Group 2: Compound No. 14 (1 mg/kg)+isotype control+mock radiation • Group 3: Compound No. 14 (0.25 mg/kg)+isotype control+mock radiation • Group 4: vehicle+anti-mPD-1+mock radiation • Group 5: vehicle+isotype control+radiation (8 Gy×3) • Group 6: Compound No. 14 (1 mg/kg)+isotype control+radiation (8 Gy×3) • Group 7: vehicle+anti-mPD-1+radiation (8 Gy×3) • Group 8: Compound No. 14 (1 mg/kg)+anti-mPD-1+radiation (8 Gy×3) • Group 9: Compound No. 14 (0.25 mg/kg)+anti-mPD-1+radiation (8 Gy×3)
Tumor growth and body weight were measured three times per week during the treatment and post-treatment periods. Mice were humanely euthanized once they had reached their humane endpoint. Mice with complete regressions were evaluated until day 74 or day 108.
Study 3: A 0.1 mg/mL stock solution of Compound No. 14 was formulated in PBS and administered IV based on exact animal body weight on each day of treatment, using a dosing volume of 10 mL/kg body weight. Final doses received were 0.25 mg/kg or 1.0 mg/kg. Compound No. 14 was administered on a Q3D schedule for 3 doses (Days 12, 15 and 18) in single agent treatment group and in combination treatment groups. Dose formulation of Compound No. 14 was prepared once and utilized for all three dosing days.
Formulated anti-mPD-1 and isotype control were stored at 4 degree Celsius until subsequent dosing on Days 15 and 18. Anti-mPD-1 or isotype control was administered concurrent with Compound No. 14 or vehicle control on a Q3D schedule for 3 doses (Days 12, 15 and 18) in single agent treatment groups and in combination treatment groups.
Radiation treatment for Study 3 was performed using focal beam radiation with volumetric image guidance from computed tomography scans SARRP (Small Animal Radiation Research Platform) irradiator (Xstrahl Inc. Suwanee, Ga). Animals received 2.42 Gy/min of radiation and approximately 3.3 min was needed to reach 8 Gy dose delivery. Animals received 8 Gy radiation on days 8, 9 and 10, with the last radiation dose given two days prior to the initiation of dosing with Compound No. 14 and/or anti-mPD-1 or relevant controls on Day 12. Animals were anesthetized during imaging and radiation treatment using 1-2% Isoflurane. For repeated daily radiation treatments, the same treatment plan was applied and adjusted for changes in animal positioning or target alteration over time.
Tumors were measured three times weekly using vernier calipers. Tumor volumes were calculated using standard equation: V=W^2×L/2, where V=volume, W=width, and L=length for the tumor. When mean tumor volumes reached approximately 60 mm^3 for Study 1, 75 mm^3 for Study 2, and 110 mm^3 for Study 3, mice were randomized into eight groups (n=10/group) in Studies 1 and 2, and nine groups (n=8/group) in Study 3. These groups were then dosed with vehicle (PBS), Compound No. 14, Radiation, anti-mPD-1 or isotype control, or combinations of these agents as described in Tables 1a, 2a, and 3a. Tumor size and body weight were measured three times a week for the duration of each study. […]

## Nc1ncnc2c1ncn2[C@@H]1O[C@@H]2COP(=O)(S)O[C@@H]3[C@H](O)[C@@H](COP(=O)(S)O[C@H]2[C@H]1F)O[C@H]3n1cc(F)c2c(=O)[nH]cnc21 (stereo partly shown) [Compound No. 14]
Combination Gr 6 [Compound No. 14 (1 mg/kg) + isotype control + radiation (8 Gy × 3)] vs Gr 2 and Gr 5
  Synergy Hazard Ratio (Weibull): 0.00194
Gr 2: Compound No. 14 (1 mg/kg) + isotype control + mock radiation
  Mice remaining on study beyond day 53: no mice
Gr 2: Compound No. 14 (1 mg/kg) IV Q3D×3 + isotype control + mock radiation, TTP = tumor volume reaching 1000 mm^3
  HR (Weibull), time to progression, pairwise comparison to vehicle group (Gr 1): 0.485
Gr 3: Compound No. 14 (0.25 mg/kg) IV Q3D×3 + isotype control + mock radiation
  HR (Weibull), time to progression, pairwise comparison to vehicle group (Gr 1): 0.37
Gr 6: Compound No. 14 (1 mg/kg) + isotype control + radiation (8 Gy×3)
  HR (Weibull), time to progression, pairwise comparison to vehicle group (Gr 1): 0.00091
Group 6: Compound No. 14 (1 mg/kg) + isotype control + 8 Gy×3 Radiation, n=8/group
  Mice remaining on study as tumor-free survivors at end of study (Day 108): 5 mice
Group 6: Compound No. 14 (1 mg/kg) and 8 Gy×3 Radiation with isotype control
  Combination effect on TTP (synergy, in words): Statistically significant synergy
